Where only a bound is given, the exact number is not on record here.

One assay concerns the target T1, N48K Clarin-1 (Homo sapiens, UniProt P58418, N48K).
T1 construct: expressed in transfected cells
T1 sequence (P58418 1-232 N48K): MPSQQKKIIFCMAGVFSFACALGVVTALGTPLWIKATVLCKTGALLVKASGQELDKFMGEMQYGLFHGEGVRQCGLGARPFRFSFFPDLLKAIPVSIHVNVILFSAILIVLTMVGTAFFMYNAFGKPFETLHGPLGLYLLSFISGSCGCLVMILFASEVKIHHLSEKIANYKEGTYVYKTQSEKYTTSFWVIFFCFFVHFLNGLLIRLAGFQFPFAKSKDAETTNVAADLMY
Briefly: Restoration of expression of N48K Clarin-1, 24 hour incubation (high content imaging of HA-tagged N48K Clarin-1). Type of assay: cell-based. Conditions: HEK293-Clarin-1 N48K-HA D9 cell line, 24 hr incubation with compound; read-out: IC50 (the source's name). On the procedure: Assay Method Showing Activity of Compounds of the Invention that Restore Expression of N48K Clarin-1 (24 hour incubation)
(§1) Clarin-1 is the protein encoded by the gene mutated in Usher III Syndrome (Adato et al., 2002). The most prevalent mutation in Clarin-1 in North America is N48K, which is reported to cause loss of glycosylation and a trafficking defect (Tian et al., 2009). […] Thus it is believed that restoring the trafficking of N48K Clarin-1 to the cell surface provides an avenue of intervention for Usher III Sydrome.
(§2) In a typical experiment, these cells were seeded on collagen-coated 96-well plates at a cell density of 20,000 cells per well in Dulbecco's Modified Eagle Medium (DMEM) contain 10% fetal bovine serum in a humidified incubator at 37° C., 5% CO2. After an overnight incubation, compounds were added for a 24 hr incubation in DMEM medium contain 10% fetal bovine serum in a humidified incubator at 37° C., 5% CO2. As a negative control, DMSO was used at 0.25% final concentrations. Compounds were typically tested in triplicate fashion. After the 24 hr incubation with compounds, the cells were fixed by the addition of 10% buffered formalin to the wells to achieve a final concentration of 4% formalin. After a 20 min fixation at room temperature, wells were washed three times with phosphate-buffered saline (PBS) containing Triton X-100 (0.02 phosphate, 150 mM NaCl, 0.1% Triton X-100).
(§3) The HA-tagged N48K Clarin-1 was detected with an antibody against the HA tag (HA.11 Clone 16B12 Monoclonal antibody, Covance #MMS-101P) at a dilution of 1:1000 in PBS containing Triton X-100. After a 90 min incubation, wells were washed three times with PBS containing Triton X-100, and a secondary antibody (Goat anti-mouse IgG-Cy3 (1.5 mg/ml), Jackson IR Europe #115165003) was added to the wells at a dilution of 1:250 in PBS containing Triton X-100 for 45 min. Wells were subsequently washed three times with PBS containing Triton X-100, and a final staining for nuclei was performed by the addition of DAPI (4′,6-diamidino-2-phenylindole) at a dilution of 1:10,000. The imaging of the stained cells was performed on an InCell 1000 High Content Imager (GE Healthcare), reading out the Cy3 channel for N48K Clarin-1 and the DAPI channel for nuclei. The images were analyzed and quantitated using a specific algorithm. This algorithm measured the HA-Clarin-1 staining for each cell based on the additional nuclear segmentation of the DAPI signal (FIG. 1). This algorithm measured the intensity per cell, and thus it is less sensitive for variation in cell number. Per well, approximately 2,000 cells were measured to achieve an average density per cell measurement. FIG. 1 illustrates high content analysis. DAPI-stained nuclei are used to perform segmentation of the image into individual cells. The density observed in the N48K Clarin-1 channel (Cy3) is then calculated per cell averaged over a field.
On to `CN1CCN(CCn2nc(-c3cc4ccccc4[nH]3)c3c(Cl)c(-c4ccccc4)nnc32)CC1` [Im, 4-chloro-3-(1H-indol-2-yl)-1-(2-(4-methylpiperazin-1-yl)ethyl)-5-phenyl-1H-pyrazolo[3,4-c]pyridazine], for which the EC50 is at most 2 µM.
The same measure, in the same setting: in the case of `O=C(Cn1nc(C2=CCCC2)c2c(Cl)c(-c3ccccc3)nnc21)N1CCCC1` [In, 2-(4-chloro-3-(cyclopent-1-en-1-yl)-5-phenyl-1H-pyrazolo[3,4-c]pyridazin-1-yl)-1-(pyrrolidin-1-yl)ethanone] it was at most 2 µM; in that of `Cc1n[nH]c2nnc(-c3ccccc3)c(Cl)c12` [Iu, 4-chloro-3-methyl-5-phenyl-1H-pyrazolo[3,4-c]pyridazine], 2 to 5 µM; in that of `Cc1nn(CCN2CCN(C)CC2)c2nnc(-c3ccccc3)c(Cl)c12` [Iv, 4-chloro-3-methyl-1-[2-(4-methylpiperazin-1-yl)ethyl]-5-phenyl-pyrazolo[3,4-c]pyridazine], at most 2 µM.
Still for that read-out and setting: in the case of `Cc1nn(CC(=O)N2CCCC2)c2nnc(-c3ccccc3)c(Cl)c12` [Iw, 2-(4-chloro-3-methyl-5-phenyl-pyrazolo[3,4-c]pyridazin-1-yl)-1-pyrrolidin-1-yl-ethanone] it was 2 to 5 µM.

A further assay addresses T1, N48K Clarin-1. Briefly: Restoration of expression of N48K Clarin-1, 2 hour incubation then 22 hr fresh medium (high content imaging of HA-tagged N48K Clarin-1). Type of assay: cell-based. Conditions: HEK293-Clarin-1 N48K-HA D9 cell line, 2 hr incubation with compound, then 22 hr in fresh medium. On the procedure: An Assay Method Showing Activity of Compounds of the Invention that Restore Expression of N48K Clarin-1(2 hour incubation)
as §1
as §2, with “for a 2 hr incubation” for “for a 24 hr incubation”, “After the 2 hr incubation” for “After the 24 hr incubation”, “cells were incubated in fresh medium for 22 hr. The cells were then fixed by” for “cells were fixed by”
as §3, with “images are” for “images were”, “measurement.” for “measurement. FIG. 1 illustrates high content analysis. DAPI-stained nuclei are used to perform segmentation of the image into individual cells. The density observed in the N48K Clarin-1 channel (Cy3) is then calculated per cell averaged over a field.”
Regarding `Cn1nc(-c2ccccc2)c2c(Cl)c(I)nnc21` [IIIa, 4-chloro-5-iodo-1-methyl-3-phenyl-pyrazolo[3,4-c]pyridazine], the IC50 was in the range of 4 to 8 µM.
For `Cn1nc(-c2ccccc2)c2c(Cl)c(C3=CCCC3)nnc21` [IIIb, 4-chloro-5-(cyclopenten-1-yl)-1-methyl-3-phenyl-pyrazolo[3,4-c]pyridazine], the half-inhibitory concentration (IC50) was 4 to 8 µM.
Same read-out and setting: in the case of `F[C@H]1CCN(CCn2nc(-c3ccccc3)c3c(Cl)c(-c4ccccc4)nnc32)C1` [IIt, 4-chloro-1-[2-[(3S)-3-fluoropyrrolidin-1-yl]ethyl]-3,5-diphenyl-pyrazolo[3,4-c]pyridazine] it was at most 4 µM.
Same read-out and setting: in the case of `F[C@@H]1CCN(CCn2nc(-c3ccccc3)c3c(Cl)c(-c4ccccc4)nnc32)C1` [IIu, 4-chloro-1-[2-1[(3R)-3-fluoropyrrolidin-1-yl]ethyl]-3,5-diphenyl-pyrazolo[3,4-c]pyridazine] it was at most 4 µM.
On the same count and under the same terms, in the case of `FC1(F)CCN(CCn2nc(-c3ccccc3)c3c(Cl)c(-c4ccccc4)nnc32)C1` [IIv, 4-chloro-1-[2-(3,3-difluoropyrrolidin-1-yl)ethyl]-3,5-diphenyl-pyrazolo[3,4-c]pyridazine] it was 4 to 8 µM; in that of `FC1(F)CN(CCn2nc(-c3ccccc3)c3c(Cl)c(-c4ccccc4)nnc32)C1` [IIw, 4-chloro-1-[2-(3,3-dilluoroazetidin-1-yl)ethyl]-3,5-diphenyl-pyrazolo[3,4-c]pyridazine], 4 to 8 µM; in that of `Fc1cccc(-c2nn(CCN3CC[C@@H](F)C3)c3nnc(-c4ccccc4)c(Cl)c23)c1` [IIx, 4-chloro-3-(3-fluorophenyl)-1-[2-[(3R)-3-fluoropyrrolidin-1-yl]ethyl]-5-phenyl-pyrazolo[3,4-c]pyridazine], at most 4 µM.
`Fc1ccc(-c2nn(CCN3CC[C@@H](F)C3)c3nnc(-c4ccccc4)c(Cl)c23)cc1` [IIy, 4-chloro-3-(4-fluorophenyl)-1-[2-[(3R)-3-fluoropyrrolidin-1-yl]ethyl]-5 phenyl-pyrazolo[3,4-c]pyridazine]: the IC50 is at most 4 µM.
Same read-out and setting: in the case of `Cc1ccc(-c2nn(CCN3CCN(C)CC3)c3nnc(-c4ccccc4)c(Cl)c23)s1` [Icc, 4-chloro-1-[2-(4-methylpiperazin-1-yl)ethyl]-3-(5-methyl-2-thienyl)-5-phenyl-pyrazolo[3,4-c]pyridazine] it was at most 4 µM; in that of `Cc1ccc(-c2nn(CCN3CCN(C)CC3)c3nnc(-c4ccccc4)c(Cl)c23)o1` [Io, 4-chloro-3-(5-methyl-2-furyl)-1-[2-(4-methylpiperazin-1-yl)ethyl]-5-phenyl-pyrazolo[3,4-c]pyridazine], at most 4 µM.
On the same count and under the same terms, in the case of `F[C@@H]1CCN(CCn2nc(I)c3c(Cl)c(-c4ccccc4)nnc32)C1` [Ip, 4-chloro-1-[2-[(3R)-3-fluoropyrrolidin-1-yl]ethyl]-3-iodo-5-phenyl-pyrazolo[3,4-c]pyridazine] it was 4 to 8 µM.
Turning to `F[C@@H]1CCN(CCn2nc(C3=CCOCC3)c3c(Cl)c(-c4ccccc4)nnc32)C1` [Iq, 4-chloro-3-(3,6-dihydro-2H-pyran-4-yl)-1-[2-[(3R)-3-fluoropyrrolidin-1-yl]ethyl]-5-phenyl-pyrazolo[3,4-c]pyridazine], the IC50 is 4 to 8 µM.
On the same count and under the same terms, in the case of `Clc1c(-c2ccccc2)nnc2c1c(I)nn2CCN1CCCC1` [Ir, 4-chloro-3-iodo-5-phenyl-1-(2-pyrrolidin-1-ylethyl)pyrazolo[3,4-c]pyridazine] it was at most 4 µM; in that of `Clc1c(-c2ccccc2)nnc2c1c(C1=CCOCC1)nn2CCN1CCCC1` [Is, 4-chloro-3-(3,6-dihydro-2H-pyran-4-yl)-5-phenyl-1-(2-pyrrolidin-1-ylethyl)pyrazolo[3,4-c]pyridazine], at most 4 µM; in that of `O=C(Cn1nc(I)c2c(Cl)c(-c3ccccc3)nnc21)N1CC[C@@H](F)C1` [It, 2-(4-chloro-3-iodo-5-phenyl-pyrazolo[3,4-c]pyridazin-1-yl)-1-[(3R)-3-fluoropyrrolidin-1-yl]ethanone], 4 to 8 µM.
On the same count and under the same terms, in the case of `CS(=O)(=O)CCn1nc(C2CC2)c2c(Cl)c(-c3ccccc3)nnc21` [Ix, 4-chloro-3-cyclopropyl-1-(2-methylsulfonylethyl)-5-phenyl-pyrazolo[3,4-c]pyridazine] it was 8 to 12 µM; in that of `CN1CCN(CCn2nc(-c3ccccn3)c3c(Cl)c(-c4ccccc4)nnc32)CC1` [Iy, 4-chloro-1-[2-(4-methylpiperazin-1-yl)ethyl]-5-phenyl-3-(2-pyridyl)pyrazolo[3,4-c]pyridazine], at most 4 µM.
Still for that read-out and setting: in the case of `CN1CCN(CCn2nc(N3CCCC3)c3c(Cl)c(-c4ccccc4)nnc32)CC1` [Iz, 4-chloro-1-[2-(4-methylpiperazin-1-yl)ethyl]-5-phenyl-3-pyrrolidin-1-yl-pyrazolo[3,4-c]pyridazine] it was at most 4 µM.

These data come from US9783545B2, “Pyrazolopyridazines and methods for treating retinal-degenerative diseases and hearing loss associated with usher syndrome” (Usher III Initiative, Inc., priority 2012, dated 2017).
